Measurements reported in US11311514B2, “Pharmaceutical composition for preventing or treating pruritus, containing pyrazole derivative as active ingredient, and screening method for detecting same” (Seoul National University R&DB Foundation, priority 2017, dated 2022).

What was measured:
dry skin mouse model = assay: Pruritus evaluation in dry skin mouse model; type: in vivo, C57BL6 mice; settings: 30 mg/kg intraperitoneal on Day 5 of acetone/ether/water treatment; recorded 30 min later; control group 130.00
Procedure: First, a dry skin mouse model was constructed. A dry skin mouse model was prepared according to the instruction described Jpn J Pharmacol. 2002 March; 88(3):285-92. ENTOBAR® was mixed with physiological saline (0.9% saline) at the ratio of 1:1, which was intraperitoneally injected in 7-week-old C57BL6 mice (20 ? /mouse) to anesthetize the mice. Then, the hair of the right nape was shaved using a clipper. Ethyl ether and acetone were mixed at the ratio of 1:1. The mixture was soaked in absorbent cotton and the right nape was rubbed with the absorbent cotton for 1 minute. Then, absorbent cotton soaked with water was used to rub in the same way. This process was performed once in the morning and once in the afternoon for 5 days.
(§1) Next, pruritus evaluation in the dry skin mouse model was performed. In the afternoon on Day 5, the control group mice were intraperitoneally injected with 3% DMSO dissolved in physiological saline (0.9% saline) (50 ? /mouse). […] 30 minutes later, their behaviors were recorded with a digital camera for 30 minutes. The number of scratches was recorded while playing back the recorded video file on a computer. A continuous action of scratching the skin from when the mouse lifted its hind foot off the floor and to when the mouse put it back on the floor was considered 1 scratch, and the number of scratches counted for 30 minutes was used as index for evaluating pruritus.

[1] = Solubility in blood (selection of final compound); type: physicochemical; settings: result in words; no method given
MRGPR X1 = molecular target: T1, MRGPR X1 (Homo sapiens, UniProt Q96LB2); assay: MRGPR X1 screening assay (calcium dye fluorescence, chloroquine-stimulated); type: cell-based; settings: Mrgpr X1 stable HEK 293T FRT cells; final 12 μM compound, 500 μM chloroquine, 0.2% DMSO
T1 construct: expressed in transfected cells
T1 sequence (Q96LB2 whole entry): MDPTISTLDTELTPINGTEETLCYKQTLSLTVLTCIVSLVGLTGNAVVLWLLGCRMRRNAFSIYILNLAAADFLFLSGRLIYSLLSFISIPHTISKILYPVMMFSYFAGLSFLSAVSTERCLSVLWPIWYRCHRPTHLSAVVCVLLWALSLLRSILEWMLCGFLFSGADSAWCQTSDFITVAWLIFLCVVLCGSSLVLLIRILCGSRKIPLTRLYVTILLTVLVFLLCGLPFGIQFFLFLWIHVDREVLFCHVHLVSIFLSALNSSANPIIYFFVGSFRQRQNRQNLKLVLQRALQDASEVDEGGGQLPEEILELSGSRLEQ
Procedure: Human MRGPRX1 gene was sub-cloned in pcDNA5 FRT vector, which was transfected into HEK 293T FRT cells. The cells were cultured in a 37° C., 5% CO2 incubator for 48 hours.
To confirm the amount with which a single colony is well formed, the transfected cells were serially diluted and then transferred and distributed on 100 mm dish evenly. The medium was replaced with a fresh medium containing 50/g/ ? of hygromycin every 3-4 days. The cells were cultured until colonies were formed.
Once colonies were formed, only a single colony was transferred to a 24 well plate, followed by culture. Then, well grown cells were transferred to a 6 well plate, followed by culture. Antibiotic selection was performed. […]
First, MRGPR X1 stable cells were counted to make 8000 cells/well, followed by seeding in a Poly-D-Lysine coated plate 384 well black/clear plate. […]
Upon completion of the incubation, dye was discarded and Na-HEPES buffer was added thereto (25 ? /well) for washing, and then buffer was added thereto (25 ? /well) again. 25 ? of the primary candidate material was added to each well of the assay plate containing 25 ? of buffer, followed by reading the plate (final 12 μM compound, 500 μM chloroquine, 0.2% DMSO). […]
The experimental results were analyzed using a microplate reader (Flexstaion Π^384, Molecular Devices). […]

[2] = molecular target: T2, human histamine 1 receptor (hH1R) (Homo sapiens, UniProt P35367); assay: Human histamine 1 receptor antagonist assay (calcium dye fluorescence, histamine-stimulated); type: cell-based; settings: HEK 293T cells transiently expressing hH1R; final 12 μM compound, 1 μM histamine, 0.2% DMSO; control 5 μM diphenhydramine; read-out: reduction of fluorescence, taking the inhibition by histamine plus diphenhydramine as 100%
T2 construct: expressed in transfected cells; host or cells: HEK 293T cells, transient transfection
T2 sequence (P35367 whole entry): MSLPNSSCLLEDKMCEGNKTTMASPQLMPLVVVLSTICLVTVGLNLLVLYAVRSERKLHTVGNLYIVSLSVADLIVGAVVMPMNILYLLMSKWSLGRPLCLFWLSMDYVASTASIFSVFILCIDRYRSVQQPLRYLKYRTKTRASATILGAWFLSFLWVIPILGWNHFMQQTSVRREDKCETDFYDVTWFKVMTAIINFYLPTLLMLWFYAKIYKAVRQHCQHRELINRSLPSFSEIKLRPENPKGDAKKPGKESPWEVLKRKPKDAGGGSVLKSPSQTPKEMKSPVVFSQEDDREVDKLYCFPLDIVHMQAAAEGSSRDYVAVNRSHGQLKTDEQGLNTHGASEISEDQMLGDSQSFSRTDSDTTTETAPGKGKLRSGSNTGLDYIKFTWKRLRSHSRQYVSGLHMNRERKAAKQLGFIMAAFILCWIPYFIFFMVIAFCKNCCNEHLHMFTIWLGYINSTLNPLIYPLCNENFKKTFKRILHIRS
Procedure: HEK 293T cells were transiently transfected with 2 μg of human histamine 1 receptor, followed by seeding at the density of 4000 cells/well. The cells were cultured in a 37° C., 5% CO2 incubator for 48 hours.
The subsequent procedure was performed using Biomex FX. After eliminating the medium, flo-3 AM dye dissolved in Na-HEPES buffer (5 mM KCl, 2 mM MgCl2, 140 mM NaCl, 10 mM NaOH-HEPES, pH7.2) at the concentration of 2.5 μM was added to the plate (25 ? /well) of the vehicle and experimental groups, and flo-3 AM dye dissolved in Na-HEPES buffer containing 5 uM diphenhydramine dissolved therein at the concentration of 2.5 μM was added to the plate (25 ? /well) of the control group, followed by culture in a 37° C., 5% CO2 incubator for 30 minutes.
During the culture, a compound plate was prepared. […]
Upon completion of the incubation, dye was discarded and Na-HEPES buffer was added thereto (25 ? /well) for washing, and then buffer was added thereto (25 ? /well) again (excluding control group wells). […] Finally, 25 ? of the compound was added to each well of the assay plate containing 25 ? of buffer, followed by reading the plate (final 12 μM compound, 1 μM histamine, 0.2% DMSO).
The experimental results were analyzed using a microplate reader (Flexstaion Π^384, Molecular Devices). Fluorescence assay was performed (Ex 488 nm, Em 535 nm) at the intervals of 3.2 seconds for 80 seconds. […]

[3] = tested on: psoriatic mouse model (Aldara cream, 5% imiquimod); assay: Pruritus evaluation in psoriatic mouse model; type: in vivo, C57BL6 mice; settings: 30 mg/kg intraperitoneal on day 8 after 7 days Aldara cream; counted for 30 minutes; normal group 20.00, control group 71.00
Procedure: First, a psoriatic mouse model was constructed. A psoriatic mouse model was prepared according to the instruction described Pain. 2016 November; 2536-2543. Zoletil (15 mg/kg) was mixed with saline at the ratio of 1:1 and then mixed with Rompun (5 mg/kg), which was intraperitoneally injected in 7-week-old C57BL6 mice to anesthetize the mice. The mouse back was primarily depilated in the size of 2.5×2 cm using a clipper, and then secondly depilated using a straight blade. Vaseline cream was rubbed on the depilated area of the normal group for 7 days using a cotton swap. Aldara cream (62.5 mg, 5% imiquimod) was rubbed on the depilated area of the control group and the experimental group for 7 days using a cotton swap.
as §1, with “psoriatic” for “dry skin”, “On day 8,” for “In”, “normal group and” for “afternoon on Day 5, the”

histamine mouse model = assay: Pruritus evaluation in histamine mouse model; type: in vivo, C57BL6 mice; settings: 30 mg/kg intraperitoneal, 30 min before histamine 500 μg s.c. dorsal; control group 118.38
Procedure: (§2) Seven week-old C57BL6 mice were placed in a new cage and adapted for 30 minutes before starting the experiment. As for the control group, 3% DMSO was dissolved in physiological saline (0.9% saline), which was intraperitoneally injected (50 ? /mouse). The animal model mice were intraperitoneally injected with the pharmaceutical composition of Example 1 (30 mg/kg) dissolved in physiological saline (0.9% saline) containing 3% DMSO (50 ? /mouse). The mice were also ? placed in the same cage above for 30 minutes.
Then, control and animal model mice were subcutaneously injected with 500 μg/50 ? of histamine on the dorsal side, and their behaviors were recorded with a digital video camera for 30 minutes. The number of scratches was recorded while playing back the recorded video file on a computer. A continuous action of scratching the skin from when the mouse lifted its hind foot off the floor and to when the mouse put it back on the floor was considered 1 scratch, and the number of scratches counted for 30 minutes was used as index for evaluating pruritus.

mouse motor ability = assay: Rota rod motor condition test; type: in vivo; settings: 30 mg/kg intraperitoneal, tested after 30 minutes; Rota rod speed 4 to 40
Procedure: The test mouse was placed on the Rota rod device and then the speed was raised from 4 to 40 until the mouse fell. When the mouse fell, it was moved to a cage. The procedure was repeated three times a day for 3 consecutive days to adapt the mouse to the Rota rod device. After three days of adaptation, the mouse was moved to a cage where it was stabilized.
As for the control group, 3% DMSO was dissolved in physiological saline (0.9% saline), which was intraperitoneally injected (50 ? /mouse). The animal model mice were intraperitoneally injected with the pharmaceutical composition of Example 1 (30 mg/kg) dissolved in physiological saline (0.9% saline) containing 3% DMSO (50 ? /mouse). The mice were also placed in the same cage above for 30 minutes. The experiment above was repeated three times like the adaptation test above, and the average time of falling was calculated.

chloroquine mouse model = assay: Pruritus evaluation in chloroquine mouse model; type: in vivo, C57BL6 mice; settings: 30 mg/kg intraperitoneal, 30 min before chloroquine 200 μg s.c. dorsal; control group 425.00
Procedure: as §2
Then, control and animal model mice were subcutaneously injected with 200 μg/50 ? of chloroquine on the dorsal side, and their behaviors were recorded with a digital video camera for 30 minutes. The number of scratches was recorded while playing back the recorded video file on a computer. A continuous action of scratching the skin from when the mouse lifted its hind foot off the floor and to when the mouse put it back on the floor was considered 1 scratch, and the number of scratches counted for 30 minutes was used as index for evaluating pruritus.

## Cc1ccc(-n2nc(C)cc2C(=O)NCCCC(=O)O)cc1 [Example 1]
Dry skin mouse model
  average number of total scratches accumulated for 30 minutes: 14.00 times
[1]
  solubility in blood: excellent solubility in blood
MRGPR X1
  decline of fluorescence analysis result versus chloroquine alone: approximately 54%
[2]
  inhibition at 12 µM: ~94%
[3]
  average number of total scratches: 1.00
Histamine mouse model
  average number of total scratches accumulated for 30 minutes: 39.90 times
Mouse motor ability
  motor condition ability (average time of falling) versus control group: no significant difference
Chloroquine mouse model
  average number of total scratches accumulated for 30 minutes: 150.50 times
